Test results published in US10258602B2 (Ocera Therapeutics, Inc., priority 2007, dated 2019).

Molecular target: human growth hormone secretagogue receptor (hGHS-R1a) (Homo sapiens, UniProt Q92847)
Assay: Competitive radioligand binding assay (ghrelin receptor), standard method A
Conditions: binding activity at the human ghrelin receptor, standard method A
Source text: A competitive binding assay at the human growth hormone secretagogue receptor (hGHS-R1a) can be carried out analogously to assays described in the literature. (Bednarek, M. A.; et al. J. Med. Chem. 2000, 43, 4370-4376; Palucki, B. L.; et al. Bioorg. Med. Chem. Lett. […], 11, 1955-1957.) See also U.S. patent application Ser. Nos. 11/149,512 and 11/149,731. Binding activity at the gherlin receptor for representative compounds of the present invention is shown in the Examples below.

Chain of human growth hormone secretagogue receptor (hGHS-R1a) (Q92847 whole entry): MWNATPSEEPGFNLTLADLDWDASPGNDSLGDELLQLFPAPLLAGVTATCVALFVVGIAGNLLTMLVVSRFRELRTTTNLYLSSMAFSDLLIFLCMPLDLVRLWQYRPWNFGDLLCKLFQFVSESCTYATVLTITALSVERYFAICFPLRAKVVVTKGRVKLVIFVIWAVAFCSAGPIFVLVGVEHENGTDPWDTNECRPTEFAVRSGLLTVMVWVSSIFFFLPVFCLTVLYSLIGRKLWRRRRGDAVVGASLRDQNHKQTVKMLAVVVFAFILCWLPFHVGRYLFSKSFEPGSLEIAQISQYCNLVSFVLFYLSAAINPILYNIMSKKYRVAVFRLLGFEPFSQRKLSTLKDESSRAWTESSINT

| SMILES | Ki |
| --- | --- |
| CC(C)CC1NC(=O)C(C)N(C)C(=O)C(C2CCCCC2)NCCOc2cc(F)ccc2CCCNC1=O (stereo not shown) [Compound 1112] | ≤ 1 nM |
| Cc1ccc(C[C@H]2NC(=O)[C@@H](C)N(C)C(=O)[C@H](C3CC3)NCCOc3ccccc3CCCNC2=O)cc1 [Compound 860] | ≤ 10 nM |
| C[C@@H]1C(=O)N[C@H](Cc2ccc(O)cc2)C(=O)NCCCc2cccc3c2O[C@@H](CC3)CN[C@@H](C2CC2)C(=O)N1C [Compound 1024] | ≤ 100 nM |
| CC[C@H](C)[C@@H]1NC[C@@H](C)Oc2c(F)cccc2CCCNC(=O)[C@@H](CC(C)C)NC(=O)[C@@H](C)N(C)C1=O [Compound 981] | ≤ 10 nM |
| C[C@@H]1CN[C@@H](C2CC2)C(=O)N(C)[C@H](C)C(=O)N[C@H](Cc2ccc(O)cc2)C(=O)NCCCc2cccc(F)c2O1 [Compound 991] | ≤ 100 nM |
| CCC[C@@H]1NC[C@@H](C)Oc2ccccc2CCCNC(=O)[C@@H](Cc2ccc(F)cc2)NC(=O)[C@@H](C)N(C)C1=O [Compound 853] | ≤ 100 nM |
| CC1CNC(C2CC2)C(=O)N(C)C(C)C(=O)NC(C(C)(C)C)C(=O)NCCCc2cccc(F)c2O1 (stereo not shown) [Compound 1044] | ≤ 500 nM |
| C[C@@H]1C(=O)N[C@H](Cc2ccccc2)C(=O)NCCCc2ccncc2OCCN[C@@H](C2CC2)C(=O)N1C [Compound 1031] | ≤ 100 nM |
| CC[C@H](C)[C@@H]1NC[C@@H](C)Oc2ccccc2CCCNC(=O)[C@@H](Cc2ccc(O)cc2)NC(=O)[C@@H](C)N(C)C1=O [Compound 993] | ≤ 100 nM |
| C[C@@H]1C(=O)N[C@H](Cc2ccc(F)cc2)C(=O)NCCCc2cccc3c2O[C@@H](CC3)CN[C@@H](C2CC2)C(=O)N1C [Compound 1016] | ≤ 100 nM |
| C[C@@H]1C(=O)N[C@H](Cc2ccc(O)cc2)C(=O)NCCCc2ncccc2OCCN[C@@H](C2CC2)C(=O)N1C [Compound 988] | ≤ 100 nM |
| CC(C)C[C@H]1NC(=O)[C@@H](C)N(C)C(=O)[C@H](C2CC2)NC[C@@H](C)Oc2cccnc2CC[C@H](C)NC1=O [Compound 1088] | ≤ 500 nM |
| C[C@@H]1C(=O)N[C@H](Cc2ccccc2)C(=O)NCCCc2cccc3c2OC(CC3)CN[C@@H](C2CC2)C(=O)N1C (stereo partly shown) [Compound 874] | ≤ 100 nM |
| CC(C)CC1NC(=O)C(C)N(C)C(=O)C(C2CC2)NCC(C)OC2CCCCC2CCC(C)NC1=O (stereo not shown) [Compound 1107] | ≤ 100 nM |
| CC1CNC(C2CC2)C(=O)N(C)C(C)C(=O)NC(CC2CCCC2)C(=O)NCCCC2CCCCC2O1 (mixture of isomers) [Compound 1114] | ≤ 1 nM |
| CC1CNC(C2CCCCC2)C(=O)N(C)C(C)C(=O)NC(Cc2ccc(O)cc2)C(=O)NCCCc2ccccc2O1 (stereo not shown) [Compound 1108] | ≤ 1 nM |
| CC[C@H](C)[C@@H]1NC[C@@H](C)Oc2cccnc2CCCNC(=O)[C@@H](Cc2ccccc2)NC(=O)[C@@H](C)N(C)C1=O [Compound 1030] | ≤ 100 nM |
| CCC[C@@H]1NC[C@@H](C)Oc2ccccc2CCCNC(=O)[C@@H](Cc2ccccc2)NC(=O)[C@@H](C)N(C)C1=O [Compound 858] | ≤ 500 nM |
| C[C@@H]1C(=O)N[C@H]([C@@H](C)c2ccc(O)cc2)C(=O)NCCCc2nccc3c2O[C@H](CC3)CN[C@@H](C2CC2)C(=O)N1C [Compound 1076] | ≤ 100 nM |
| C[C@@H]1CN[C@@H](C2CC2)C(=O)N(C)[C@H](C)C(=O)N[C@H](Cc2ccc(O)c(F)c2)C(=O)NCCCc2ccccc2O1 [Compound 1104] | ≤ 100 nM |
| C[C@@H]1C(=O)N[C@H](Cc2ccc(F)cc2)C(=O)NCCCc2cccc3c2OC(CC3)CN[C@@H](C2CC2)C(=O)N1C (stereo partly shown) [Compound 946] | ≤ 10 nM |
| C[C@@H]1C(=O)N[C@H](Cc2cccc(Cl)c2)C(=O)NCCCc2ccccc2OCCN[C@@H](C2CC2)C(=O)N1C [Compound 873] | ≤ 100 nM |
| CC(C)[C@@H]1NC[C@@H](C)Oc2ccccc2CCCNC(=O)[C@@H](Cc2ccccc2)NC(=O)[C@@H](C)N(C)C1=O [Compound 871] | ≤ 500 nM |
| CC1C(=O)NC(Cc2ccc(O)cc2)C(=O)NCCCc2ccc(F)cc2OCCNC(C2CCCCC2)C(=O)N1C (stereo not shown) [Compound 1113] | ≤ 1 nM |
| C[C@@H]1CN[C@@H](C2CC2)C(=O)N(C)[C@H](C)C(=O)N[C@H]([C@H](C)c2ccc(O)cc2)C(=O)NCCCc2ncccc2O1 [Compound 1081] | > 500 nM |
| C[C@@H]1C(=O)N[C@H](Cc2ccc(O)cc2)C(=O)NCCCc2cccc3c2OC(CN[C@@H](C2CC2)C(=O)N1C)C3 (stereo partly shown) [Compound 1025] | ≤ 500 nM |
| CC[C@H](C)[C@@H]1NC[C@@H](C)Oc2ccccc2CCCNC(=O)[C@@H](Cc2ccccc2)NC(=O)[C@@H](CO)N(C)C1=O [Compound 939] | ≤ 100 nM |
| CCC[C@@H]1NC[C@@H](C)Oc2ccccc2CCCNC(=O)[C@@H](Cc2ccc(Cl)cc2)NC(=O)[C@@H](C)N(C)C1=O [Compound 863] | ≤ 100 nM |
| CC[C@H](C)[C@@H]1NC[C@@H](C)Oc2cccnc2CCCNC(=O)[C@@H](CC(C)C)NC(=O)[C@@H](C)N(C)C1=O [Compound 1000] | ≤ 500 nM |

The next lines start with the values.

| Ki | SMILES |
| --- | --- |
| ≤ 100 nM | C[C@@H]1CN[C@@H](C2CC2)C(=O)N(C)[C@H](C)C(=O)N[C@H](Cc2ccccn2)C(=O)NCCCc2ccccc2O1 [Compound 972] |
| ≤ 500 nM | COC(=O)C[C@H]1NC(=O)[C@@H](C)N(C)C(=O)[C@H](C2CC2)NC[C@@H](C)Oc2ccccc2CCCNC1=O [Compound 1090] |
| ≤ 10 nM | C[C@@H]1CCc2ccccc2O[C@H](C)CN[C@@H](C2CC2)C(=O)N(C)[C@H](C)C(=O)N[C@H](Cc2ccc(F)cc2)C(=O)N1 [Compound 1010] |
| ≤ 1 nM | CC(C)C[C@H]1NC(=O)[C@@H](C)N(C)C(=O)[C@H](C2CCCCC2)NC[C@@H](C)Oc2ccccc2CCCNC1=O [Compound 1099] |
| ≤ 500 nM | C[C@@H]1CN[C@@H](C2CC2)C(=O)N(C)[C@H](C)C(=O)N[C@H](Cc2ccc(Cl)cc2)C(=O)NCCCc2cc(F)c(F)cc2O1 [Compound 951] |
| > 500 nM | C[C@@H]1CN[C@@H](C2CC2)C(=O)N(C)[C@H](C)C(=O)N[C@H]([C@H](C)O)C(=O)NCCCc2ccccc2O1 [Compound 1050] |
| ≤ 100 nM | CC1CNC(C2CC2)C(=O)N(C)C(C)C(=O)NC(CC2CCCC2)C(=O)NCCCc2ccccc2O1 (mixture of isomers) [Compound 1047] |
| ≤ 100 nM | C[C@@H]1CN[C@@H](C2CC2)C(=O)N(C)[C@H](C)C(=O)N[C@H](Cc2c(F)c(F)c(F)c(F)c2F)C(=O)NCCCc2ccccc2O1 [Compound 1042] |
| ≤ 100 nM | C[C@@H]1CN[C@@H](C2CC2)C(=O)N(C)[C@H](C)C(=O)N[C@H]([C@@H](C)c2ccc(O)cc2)C(=O)NCCCc2ccccc2O1 [Compound 1068] |
| ≤ 500 nM | CC(C)C[C@H]1NC(=O)[C@@H](C)N(C)C(=O)[C@H](C2CC2)NC[C@@H](C)Oc2c(Cl)cccc2CCCNC1=O [Compound 1006] |
| ≤ 100 nM | C[C@@H]1CN[C@@H](C2CC2)C(=O)N(C)[C@H](C)C(=O)N[C@H](Cc2ccc(F)c(F)c2)C(=O)NCCCc2ccccc2O1 [Compound 1040] |
| > 500 nM | C[C@@H]1CN[C@@H](C2CC2)C(=O)N(C)[C@H](C)C(=O)N[C@H](CC(=O)O)C(=O)NCCCc2ccccc2O1 [Compound 1036] |
| ≤ 100 nM | CC(=O)Oc1c(Br)cc(C[C@H]2NC(=O)[C@@H](C)N(C)C(=O)[C@H](C3CC3)NC[C@@H](C)Oc3ccccc3CCCNC2=O)cc1Br [Compound 1066] |
| ≤ 500 nM | CC(C)[C@@H]1CN[C@@H](C2CC2)C(=O)N(C)[C@H](C)C(=O)N[C@H](Cc2ccccc2)C(=O)NCCCc2ccc(F)cc2O1 [Compound 965] |
